The source of these data is BindingDB's records for doi:10.1021/jm00072a019 (J. Uriach & Cía., 1993).

This assay in a line: Inhibition of PAF-induced platelet aggregation.
The term IC50 denotes the concentration that inhibits the measured activity by half. A low value points to greater potency in that assay. Molecule `C#CC(c1cccnc1C)N1CCN(C(=O)CNC(c2ccccc2)c2ccccc2)CC1` (stereo not drawn) [2-(Benzhydryl-amino)-1-{4-[1-(2-methyl-pyridin-3-yl)-prop-2-ynyl]-piperazin-1-yl}-ethanone] had a half-inhibitory concentration (IC50) of 860 nM.
Under `CNC(=O)C(CC(=O)N1CCN(C(C#N)c2cccnc2C)CC1)c1ccccc1` (stereo not drawn) [4-{4-[Cyano-(2-methyl-pyridin-3-yl)-methyl]-piperazin-1-yl}-N-methyl-4-oxo-2-phenyl-butyramide] stands 15200 nM; under `Cc1ncccc1C(C#N)N1CCN(C(=O)CC(NCc2cccnc2)c2ccccc2)CC1` (stereo not drawn) [(2-Methyl-pyridin-3-yl)-(4-{3-phenyl-3-[(pyridin-3-ylmethyl)-amino]-propionyl}-piperazin-1-yl)-acetonitrile], 75 nM; under `Cc1ncccc1C(C#N)N1CCN(C(=O)CC(Nc2ccccc2)c2ccccc2)CC1` (stereo not drawn) [(2-Methyl-pyridin-3-yl)-[4-(3-phenyl-3-phenylamino-propionyl)-piperazin-1-yl]-acetonitrile], 28 nM.
`C#CCNC(CC(=O)N1CCN(C(C#N)c2cccnc2C)CC1)c1ccccc1` (stereo not drawn) [(2-Methyl-pyridin-3-yl)-[4-(3-phenyl-3-prop-2-ynylamino-propionyl)-piperazin-1-yl]-acetonitrile] registered a half-maximal inhibitory concentration (IC50) of 270 nM. Compared with the last molecule, the IC50 is about 9.6-fold higher.
The figure for `Cc1ncccc1C(C#N)N1CCN(C(=O)CC(c2ccccc2)N2CCOC2=O)CC1` (stereo not drawn) [(2-Methyl-pyridin-3-yl)-{4-[3-(2-oxo-oxazolidin-3-yl)-3-phenyl-propionyl]-piperazin-1-yl}-acetonitrile] is 63 nM; for `Cc1ncccc1C(C#N)N1CCN(C(=O)CC(c2ccccc2)N2CCCC2=O)CC1` (stereo not drawn) [(2-Methyl-pyridin-3-yl)-{4-[3-(2-oxo-pyrrolidin-1-yl)-3-phenyl-propionyl]-piperazin-1-yl}-acetonitrile] it is 30 nM.
In turn, `Cc1ncccc1C(C#N)N1CCN(C(=O)CC(NC(=O)OCc2ccccc2)c2ccccc2)CC1` (stereo not drawn) [(3-{4-[Cyano-(2-methyl-pyridin-3-yl)-methyl]-piperazin-1-yl}-3-oxo-1-phenyl-propyl)-carbamic acid benzyl ester] yielded an IC50 of 22 nM.
With `CCOC(=O)NC(CC(=O)N1CCN(C(C#N)c2cccnc2C)CC1)c1ccccc1` (stereo not drawn) [(3-{4-[Cyano-(2-methyl-pyridin-3-yl)-methyl]-piperazin-1-yl}-3-oxo-1-phenyl-propyl)-carbamic acid ethyl ester], the 50% inhibitory concentration (IC50) was 14 nM.
For `Cc1ncccc1C(C#N)N1CCN(C(=O)CC(NC(=O)OCC(C)C)c2ccccc2)CC1` (stereo not drawn) [(3-{4-[Cyano-(2-methyl-pyridin-3-yl)-methyl]-piperazin-1-yl}-3-oxo-1-phenyl-propyl)-carbamic acid isobutyl ester], 36 nM corresponded to half-maximal inhibition (IC50).
`COC(=O)NC(CC(=O)N1CCN(C(C#N)c2cccnc2C)CC1)c1ccccc1` (stereo not drawn) [(3-{4-[Cyano-(2-methyl-pyridin-3-yl)-methyl]-piperazin-1-yl}-3-oxo-1-phenyl-propyl)-carbamic acid methyl ester]: inhibition was half-maximal at 41 nM (IC50).
For the molecule `Cc1ncccc1C(C#N)N1CCN(C(=O)CC(NC(=O)Oc2ccccc2)c2ccccc2)CC1` (stereo not drawn) [(3-{4-[Cyano-(2-methyl-pyridin-3-yl)-methyl]-piperazin-1-yl}-3-oxo-1-phenyl-propyl)-carbamic acid phenyl ester], the half-inhibitory concentration (IC50) worked out at 16 nM. This IC50 is about 2.6-fold lower than that of the molecule before.
Molecule `Cc1ncccc1C(C#N)N1CCN(C(=O)CC(NC(=O)OC(C)(C)C)c2ccccc2)CC1` (stereo not drawn) [(3-{4-[Cyano-(2-methyl-pyridin-3-yl)-methyl]-piperazin-1-yl}-3-oxo-1-phenyl-propyl)-carbamic acid tert-butyl ester] returned an IC50 of 56 nM.
The figure for `COC(=O)N(C)C(CC(=O)N1CCN(C(C#N)c2cccnc2C)CC1)c1ccccc1` (stereo not drawn) [(3-{4-[Cyano-(2-methyl-pyridin-3-yl)-methyl]-piperazin-1-yl}-3-oxo-1-phenyl-propyl)-methyl-carbamic acid methyl ester] is 20 nM; for `Cc1ncccc1C(C#N)N1CCN(C(=O)CC(NC(N)=O)c2ccccc2)CC1` (stereo not drawn) [(3-{4-[Cyano-(2-methyl-pyridin-3-yl)-methyl]-piperazin-1-yl}-3-oxo-1-phenyl-propyl)-urea] it is 470 nM; for `COC(=O)N(Cc1ccccc1)C(CC(=O)N1CCN(C(C#N)c2cccnc2C)CC1)c1ccccc1` (stereo not drawn) [Benzyl-(3-{4-[cyano-(2-methyl-pyridin-3-yl)-methyl]-piperazin-1-yl}-3-oxo-1-phenyl-propyl)-carbamic acid methyl ester] it is 68 nM.
Take `CC(=O)NC(CC(=O)N1CCN(C(C#N)c2cccnc2C)CC1)c1ccccc1` (stereo not drawn) [N-(3-{4-[Cyano-(2-methyl-pyridin-3-yl)-methyl]-piperazin-1-yl}-3-oxo-1-phenyl-propyl)-acetamide]: the IC50 was found to be 31 nM.
Consider `Cc1ncccc1C(C#N)N1CCN(C(=O)CC(NC(=O)c2ccccc2)c2ccccc2)CC1` (stereo not drawn) [N-(3-{4-[Cyano-(2-methyl-pyridin-3-yl)-methyl]-piperazin-1-yl}-3-oxo-1-phenyl-propyl)-benzamide], for which inhibition was half-maximal at 9.1 nM (IC50).
The figure for `Cc1ncccc1C(C#N)N1CCN(C(=O)CC(NC(=O)c2cccnc2)c2ccccc2)CC1` (stereo not drawn) [N-(3-{4-[Cyano-(2-methyl-pyridin-3-yl)-methyl]-piperazin-1-yl}-3-oxo-1-phenyl-propyl)-nicotinamide] is 8.9 nM; for `CC(=O)N(CC(=O)N1CCN(C(C#N)c2cccnc2C)CC1)C(c1ccccc1)c1ccccc1` (stereo not drawn) [N-Benzhydryl-N-(2-{4-[cyano-(2-methyl-pyridin-3-yl)-methyl]-piperazin-1-yl}-2-oxo-ethyl)-acetamide] it is 20 nM.
For `Cc1ncccc1C(C#N)N1CCN(C(=O)CN(C=O)C(c2ccccc2)c2ccccc2)CC1` (stereo not drawn) [N-Benzhydryl-N-(2-{4-[cyano-(2-methyl-pyridin-3-yl)-methyl]-piperazin-1-yl}-2-oxo-ethyl)-formamide], half-maximal inhibition (IC50) required 30 nM.
The molecule `Cc1ncccc1C(C#N)N1CCN(C(=O)CC(NC(=O)N2CCCC2)c2ccccc2)CC1` (stereo not drawn) [Pyrrolidine-1-carboxylic acid (3-{4-[cyano-(2-methyl-pyridin-3-yl)-methyl]-piperazin-1-yl}-3-oxo-1-phenyl-propyl)-amide] displayed a 50% inhibitory concentration (IC50) of 64 nM.
`COC(=O)NC(CC(=O)N1CCN(C(C#N)c2cccnc2C)CC1)c1ccc(C(F)(F)F)cc1` (stereo not drawn) [[3-{4-[Cyano-(2-methyl-pyridin-3-yl)-methyl]-piperazin-1-yl}-3-oxo-1-(4-trifluoromethyl-phenyl)-propyl]-carbamic acid methyl ester] gave an IC50 of 12 nM.
In turn, `Cc1ncccc1C(C#N)N1CCN(C(=O)COC(c2ccccc2)c2ccccc2)CC1` (stereo not drawn) [[4-(2-Benzhydryloxy-acetyl)-piperazin-1-yl]-(2-methyl-pyridin-3-yl)-acetonitrile] came in with an IC50 of 42 nM.
Under `Cc1ncccc1C(C#N)N1CCN(C(=O)CSC(c2ccccc2)c2ccccc2)CC1` (stereo not drawn) [[4-(2-Benzhydrylsulfanyl-acetyl)-piperazin-1-yl]-(2-methyl-pyridin-3-yl)-acetonitrile] stands 79 nM; under `Cc1ncccc1C(C#N)N1CCN(C(=O)CNC(c2ccc(F)cc2)c2ccc(F)cc2)CC1` (stereo not drawn) [[4-(2-{[Bis-(4-fluoro-phenyl)-methyl]-amino}-acetyl)-piperazin-1-yl]-(2-methyl-pyridin-3-yl)-acetonitrile], 150 nM.
Under `Cc1ncccc1C(C#N)N1CCN(C(=O)C=C(c2ccccc2)c2ccccc2)CC1` (stereo not drawn) [[4-(3,3-Diphenyl-acryloyl)-piperazin-1-yl]-(2-methyl-pyridin-3-yl)-acetonitrile] stands 26 nM; under `Cc1ncccc1C(C#N)N1CCN(C(=O)CC(c2ccccc2)c2ccccc2)CC1` (stereo not drawn) [[4-(3,3-Diphenyl-propionyl)-piperazin-1-yl]-(2-methyl-pyridin-3-yl)-acetonitrile], 18 nM; under `C=CCNC(CC(=O)N1CCN(C(C#N)c2cccnc2C)CC1)c1ccccc1` (stereo not drawn) [[4-(3-Allylamino-3-phenyl-propionyl)-piperazin-1-yl]-(2-methyl-pyridin-3-yl)-acetonitrile], 18 nM.
Under `Cc1ncccc1C(C#N)N1CCN(C(=O)CC(N)c2ccccc2)CC1` (stereo not drawn) [[4-(3-Amino-3-phenyl-propionyl)-piperazin-1-yl]-(2-methyl-pyridin-3-yl)-acetonitrile] stands 740 nM; under `Cc1ncccc1C(C#N)N1CCN(C(=O)CC(NCc2ccccc2)c2ccccc2)CC1` (stereo not drawn) [[4-(3-Benzylamino-3-phenyl-propionyl)-piperazin-1-yl]-(2-methyl-pyridin-3-yl)-acetonitrile], 9.1 nM; under `Cc1ncccc1C(C#N)N1CCN(C(=O)CC(c2ccccc2)N(Cc2ccccc2)Cc2ccccc2)CC1` (stereo not drawn) [[4-(3-Dibenzylamino-3-phenyl-propionyl)-piperazin-1-yl]-(2-methyl-pyridin-3-yl)-acetonitrile], 41 nM.
Molecule `Cc1ncccc1C(C#N)N1CCN(C(=O)C(C)(C)C(F)(c2ccccc2)c2ccccc2)CC1` (stereo not drawn) [[4-(3-Fluoro-2,2-dimethyl-3,3-diphenyl-propionyl)-piperazin-1-yl]-(2-methyl-pyridin-3-yl)-acetonitrile] came in with an IC50 of 26 nM. Compared with the last molecule, the IC50 is about 1.6-fold lower.
Under `Cc1ncccc1C(C#N)N1CCN(C(=O)CC(O)(c2ccccc2)c2ccccc2)CC1` (stereo not drawn) [[4-(3-Hydroxy-3,3-diphenyl-propionyl)-piperazin-1-yl]-(2-methyl-pyridin-3-yl)-acetonitrile] stands 17 nM.
The figure for `CNC(CC(=O)N1CCN(C(C#N)c2cccnc2C)CC1)c1ccccc1` (stereo not drawn) [[4-(3-Methylamino-3-phenyl-propionyl)-piperazin-1-yl]-(2-methyl-pyridin-3-yl)-acetonitrile] is 11 nM; for `Cc1ncccc1C(C#N)N1CCN(C(=O)CCC(c2ccccc2)c2ccccc2)CC1` (stereo not drawn) [[4-(4,4-Diphenyl-butyryl)-piperazin-1-yl]-(2-methyl-pyridin-3-yl)-acetonitrile] it is 80 nM; for `Cc1ncccc1C(C#N)N1CCN(C(=O)CNC(C)(c2ccccc2)c2ccccc2)CC1` (stereo not drawn) [{4-[2-(1,1-Diphenyl-ethylamino)-acetyl]-piperazin-1-yl}-(2-methyl-pyridin-3-yl)-acetonitrile] it is 86 nM.
With `Cc1ncccc1C(C#N)N1CCN(C(=O)CNC2c3ccccc3-c3ccccc32)CC1` (stereo not drawn) [{4-[2-(9H-Fluoren-9-ylamino)-acetyl]-piperazin-1-yl}-(2-methyl-pyridin-3-yl)-acetonitrile], it took 50 nM to reach half-maximal inhibition (IC50). This IC50 lies about 1.7-fold lower than the previous one.
